{
  "source": "ChEMBL document CHEMBL1150736",
  "about": "“Potential inhibitors of platelet aggregation from plant sources, III” (1987)",
  "note": "The source made the active and inactive calls. The rule behind the calls is not given here.",
  "data": [
    {"tested_on": "not listed separately", "experiment": "Antiplatelet activity against rat platelet rich plasma assessed as inhibition of ADP-induced platelet aggregation pretreated 2 mins before ADP challenge", "assay_type": "functional", "units": {"Activity": "mM"}, "values": [
      {"smiles": "CC(=O)Oc1ccccc1C(=O)O", "note": "[ASPIRIN]", "Activity": 5.6},
      {"smiles": "O=C(O)c1ccc(O)c(O)c1", "note": "[PROTOCATECHUIC ACID]", "Activity": 6.5},
      {"smiles": "CCOC(=O)c1ccc(O)c(O)c1", "Activity": 2.7}
    ]},
    {"tested_on": "not listed separately", "experiment": "Antiplatelet activity against rat platelet rich plasma assessed as inhibition of arachidonic acid-induced platelet aggregation pretreated 2 mins before arachidonic acid challenge", "assay_type": "functional", "values": [
      {"smiles": "CC(=O)Oc1ccccc1C(=O)O", "note": "[ASPIRIN]", "Activity": "2.8 ×10⁻⁴ M"},
      {"smiles": "O=C(O)c1ccc(O)c(O)c1", "note": "[PROTOCATECHUIC ACID]", "Activity": "3.2 mM"},
      {"smiles": "CCOC(=O)c1ccc(O)c(O)c1", "Activity": "5.5 ×10⁻⁴ M"}
    ]},
    {"tested_on": "not listed separately", "experiment": "Antiplatelet activity against rat platelet rich plasma assessed as inhibition of collagen-induced platelet aggregation pretreated 2 mins before collagen challenge", "assay_type": "functional", "units": {"Activity": "mM"}, "values": [
      {"smiles": "CC(=O)Oc1ccccc1C(=O)O", "note": "[ASPIRIN]", "Activity": 1.4},
      {"smiles": "O=C(O)c1ccc(O)c(O)c1", "note": "[PROTOCATECHUIC ACID]", "Activity": 1.6},
      {"smiles": "CCOC(=O)c1ccc(O)c(O)c1", "Activity": 1.4}
    ]},
    {"tested_on": "Platelet", "experiment": "Antiplatelet activity against rat platelet rich plasma assessed as inhibition of ADP-induced platelet aggregation at 0.5 mg/ml pretreated 2 mins before ADP challenge", "assay_type": "functional", "values": [
      {"smiles": "COc1cc(OC)cc(C(=O)O)c1", "Activity": "inactive"},
      {"smiles": "COc1ccc(C(=O)O)cc1OC", "Activity": "inactive"},
      {"smiles": "COC(=O)c1ccc(OC)cc1O", "Activity": "inactive"},
      {"smiles": "CCOC(=O)c1ccc(O)c(O)c1", "Activity": "Active"}
    ]},
    {"tested_on": "Platelet", "experiment": "Antiplatelet activity against rat platelet rich plasma assessed as inhibition of arachidonic acid-induced platelet aggregation at 0.5 mg/ml pretreated 2 mins before arachidonic acid challenge", "assay_type": "functional", "values": [
      {"smiles": "COc1ccc(C(=O)O)cc1O", "Activity": "Active"},
      {"smiles": "CCOC(=O)c1cc(O)cc(O)c1", "Activity": "Active"},
      {"smiles": "CC(=O)Oc1ccccc1C(=O)O", "note": "[ASPIRIN]", "Activity": "Active"},
      {"smiles": "COc1ccc(C(=O)O)c(OC)c1", "Activity": "Active"},
      {"smiles": "COC(=O)c1ccc(O)c(OC)c1", "Activity": "Active"},
      {"smiles": "COC(=O)c1ccc(O)cc1O", "Activity": "Active"},
      {"smiles": "COC(=O)c1cc(OC)cc(OC)c1", "Activity": "Active"},
      {"smiles": "O=C(O)c1cccc(O)c1O", "Activity": "Active"},
      {"smiles": "O=C(O)c1cc(O)ccc1O", "Activity": "Active"},
      {"smiles": "COC(=O)c1ccc(O)c(O)c1", "Activity": "Active"},
      {"smiles": "COC(=O)c1ccc(OC)c(OC)c1", "Activity": "Active"},
      {"smiles": "COc1cc(C(=O)O)ccc1O", "Activity": "Active"},
      {"smiles": "COc1ccc(C(=O)O)c(O)c1", "Activity": "Active"},
      {"smiles": "O=C(O)c1ccc(O)cc1O", "Activity": "Active"},
      {"smiles": "O=C(O)c1cc(O)cc(O)c1", "Activity": "Active"},
      {"smiles": "COc1cccc(C(=O)O)c1OC", "Activity": "inactive"},
      {"smiles": "CCOc1ccc(C(=O)O)cc1OCC", "Activity": "Active"},
      {"smiles": "COC(=O)c1cccc(O)c1O", "Activity": "Active"},
      {"smiles": "CCOC(=O)c1ccc(O)cc1O", "Activity": "Active"},
      {"smiles": "CCOC(=O)c1cccc(O)c1O", "Activity": "Active"},
      {"smiles": "O=C(O)c1c(O)cccc1O", "Activity": "Active"},
      {"smiles": "O=C(O)c1ccc(O)c(O)c1", "note": "[PROTOCATECHUIC ACID]", "Activity": "Active"},
      {"smiles": "CCOC(=O)c1ccc(O)c(O)c1", "Activity": "Active"},
      {"smiles": "COc1cccc(C(=O)O)c1O", "Activity": "Active"},
      {"smiles": "COC(=O)c1cc(O)cc(O)c1", "Activity": "Active"}
    ]},
    {"tested_on": "Platelet", "experiment": "Antiplatelet activity against rat platelet rich plasma assessed as inhibition of collagen-induced platelet aggregation at 0.05 mg/ml pretreated 2 mins before collagen challenge", "assay_type": "functional", "values": [
      {"smiles": "CC(=O)Oc1ccccc1C(=O)O", "note": "[ASPIRIN]", "Activity": "inactive"}
    ]},
    {"tested_on": "Platelet", "experiment": "Antiplatelet activity against rat platelet rich plasma assessed as inhibition of arachidonic acid-induced platelet aggregation at 0.25 mg/ml pretreated 2 mins before arachidonic acid challenge", "assay_type": "functional", "values": [
      {"smiles": "COc1ccc(O)c(C(=O)O)c1", "Activity": "inactive"},
      {"smiles": "COc1ccc(C(=O)O)cc1O", "Activity": "inactive"},
      {"smiles": "CC(=O)Oc1ccccc1C(=O)O", "note": "[ASPIRIN]", "Activity": "Active"},
      {"smiles": "COc1cccc(OC)c1C(=O)O", "Activity": "inactive"},
      {"smiles": "COC(=O)c1ccc(O)c(OC)c1", "Activity": "Active"},
      {"smiles": "COC(=O)c1ccc(O)cc1O", "Activity": "Active"},
      {"smiles": "O=C(O)c1cccc(O)c1O", "Activity": "Active"},
      {"smiles": "COc1ccc(C(=O)O)cc1OC", "Activity": "inactive"},
      {"smiles": "COC(=O)c1ccc(O)c(O)c1", "Activity": "Active"},
      {"smiles": "COC(=O)c1ccc(OC)c(OC)c1", "Activity": "Active"},
      {"smiles": "COc1cc(C(=O)O)ccc1O", "Activity": "inactive"},
      {"smiles": "O=C(O)c1ccc(O)cc1O", "Activity": "Active"},
      {"smiles": "COc1cccc(C(=O)O)c1OC", "Activity": "inactive"},
      {"smiles": "CCOc1ccc(C(=O)O)cc1OCC", "Activity": "inactive"},
      {"smiles": "COC(=O)c1cccc(O)c1O", "Activity": "Active"},
      {"smiles": "COc1cc(CC(=O)O)ccc1O", "Activity": "Active"},
      {"smiles": "CCOC(=O)c1ccc(O)cc1O", "Activity": "Active"},
      {"smiles": "CCOC(=O)c1cccc(O)c1O", "Activity": "Active"},
      {"smiles": "COC(=O)c1ccc(OC)cc1O", "Activity": "inactive"},
      {"smiles": "CCOC(=O)c1ccc(O)c(O)c1", "Activity": "Active"},
      {"smiles": "COC(=O)c1cc(O)cc(O)c1", "Activity": "Active"}
    ]},
    {"tested_on": "Platelet", "experiment": "Antiplatelet activity against rat platelet rich plasma assessed as inhibition of collagen-induced platelet aggregation at 0.25 mg/ml pretreated 2 mins before collagen challenge", "assay_type": "functional", "values": [
      {"smiles": "COc1ccc(O)c(C(=O)O)c1", "Activity": "Active"},
      {"smiles": "CC(=O)Oc1ccccc1C(=O)O", "note": "[ASPIRIN]", "Activity": "Active"},
      {"smiles": "COc1cccc(OC)c1C(=O)O", "Activity": "Active"},
      {"smiles": "COc1ccc(C(=O)O)c(OC)c1", "Activity": "Active"},
      {"smiles": "COC(=O)c1ccc(O)c(OC)c1", "Activity": "Active"},
      {"smiles": "COC(=O)c1cc(OC)cc(OC)c1", "Activity": "Active"},
      {"smiles": "COc1cc(OC)cc(C(=O)O)c1", "Activity": "inactive"},
      {"smiles": "O=C(O)c1cccc(O)c1O", "Activity": "Active"},
      {"smiles": "O=C(O)c1cc(O)ccc1O", "Activity": "Active"},
      {"smiles": "COC(=O)c1ccc(OC)c(OC)c1", "Activity": "Active"},
      {"smiles": "COc1cc(C(=O)O)ccc1O", "Activity": "Active"},
      {"smiles": "COc1ccc(C(=O)O)c(O)c1", "Activity": "Active"},
      {"smiles": "O=C(O)c1ccc(O)cc1O", "Activity": "Active"},
      {"smiles": "O=C(O)c1cc(O)cc(O)c1", "Activity": "Active"},
      {"smiles": "COc1cccc(C(=O)O)c1OC", "Activity": "Active"},
      {"smiles": "CCOc1ccc(C(=O)O)cc1OCC", "Activity": "inactive"},
      {"smiles": "COC(=O)c1ccc(OC)cc1O", "Activity": "Active"},
      {"smiles": "O=C(O)c1c(O)cccc1O", "Activity": "Active"},
      {"smiles": "O=C(O)c1ccc(O)c(O)c1", "note": "[PROTOCATECHUIC ACID]", "Activity": "Active"},
      {"smiles": "CCOC(=O)c1ccc(O)c(O)c1", "Activity": "Active"},
      {"smiles": "COC(=O)c1cc(O)cc(O)c1", "Activity": "Active"}
    ]},
    {"tested_on": "Platelet", "experiment": "Antiplatelet activity against rat platelet rich plasma assessed as inhibition of arachidonic acid-induced platelet aggregation at 0.1 mg/ml pretreated 2 mins before arachidonic acid challenge", "assay_type": "functional", "values": [
      {"smiles": "CC(=O)Oc1ccccc1C(=O)O", "note": "[ASPIRIN]", "Activity": "Active"},
      {"smiles": "O=C(O)c1ccc(O)cc1O", "Activity": "Active"},
      {"smiles": "CCOC(=O)c1ccc(O)c(O)c1", "Activity": "Active"},
      {"smiles": "COC(=O)c1cc(O)cc(O)c1", "Activity": "Active"}
    ]},
    {"tested_on": "Platelet", "experiment": "Antiplatelet activity against rat platelet rich plasma assessed as inhibition of collagen-induced platelet aggregation at 0.1 mg/ml pretreated 2 mins before collagen challenge", "assay_type": "functional", "values": [
      {"smiles": "COC(=O)c1ccc(O)c(OC)c1", "Activity": "Active"},
      {"smiles": "COc1cc(OC)cc(C(=O)O)c1", "Activity": "inactive"},
      {"smiles": "COC(=O)c1ccc(OC)c(OC)c1", "Activity": "Active"},
      {"smiles": "O=C(O)c1ccc(O)cc1O", "Activity": "Active"},
      {"smiles": "CCOc1ccc(C(=O)O)cc1OCC", "Activity": "inactive"}
    ]},
    {"tested_on": "Platelet", "experiment": "Antiplatelet activity against rat platelet rich plasma assessed as inhibition of ADP-induced platelet aggregation at 1 mg/ml pretreated 2 mins before ADP challenge", "assay_type": "functional", "values": [
      {"smiles": "COc1ccc(O)c(C(=O)O)c1", "Activity": "Active"},
      {"smiles": "COc1ccc(C(=O)O)cc1O", "Activity": "Active"},
      {"smiles": "CCOC(=O)c1cc(O)cc(O)c1", "Activity": "Active"},
      {"smiles": "CC(=O)Oc1ccccc1C(=O)O", "note": "[ASPIRIN]", "Activity": "Active"},
      {"smiles": "COc1ccc(C(=O)O)c(OC)c1", "Activity": "Active"},
      {"smiles": "COC(=O)c1ccc(O)c(OC)c1", "Activity": "Active"},
      {"smiles": "COC(=O)c1ccc(O)cc1O", "Activity": "Active"},
      {"smiles": "O=C(O)c1cccc(O)c1O", "Activity": "Active"},
      {"smiles": "O=C(O)c1cc(O)ccc1O", "Activity": "Active"},
      {"smiles": "COC(=O)c1ccc(O)c(O)c1", "Activity": "Active"},
      {"smiles": "COc1cc(C(=O)O)ccc1O", "Activity": "Active"},
      {"smiles": "O=C(O)c1ccc(O)cc1O", "Activity": "Active"},
      {"smiles": "O=C(O)c1cc(O)cc(O)c1", "Activity": "Active"},
      {"smiles": "COc1cccc(C(=O)O)c1OC", "Activity": "Active"},
      {"smiles": "CCOc1ccc(C(=O)O)cc1OCC", "Activity": "Active"},
      {"smiles": "COC(=O)c1cccc(O)c1O", "Activity": "Active"},
      {"smiles": "COc1cc(CC(=O)O)ccc1O", "Activity": "Active"},
      {"smiles": "CCOC(=O)c1ccc(O)cc1O", "Activity": "Active"},
      {"smiles": "CCOC(=O)c1cccc(O)c1O", "Activity": "Active"},
      {"smiles": "O=C(O)c1ccc(O)c(O)c1", "note": "[PROTOCATECHUIC ACID]", "Activity": "Active"},
      {"smiles": "CCOC(=O)c1ccc(O)c(O)c1", "Activity": "Active"},
      {"smiles": "COc1cccc(C(=O)O)c1O", "Activity": "Active"},
      {"smiles": "COC(=O)c1cc(O)cc(O)c1", "Activity": "Active"}
    ]}
  ]
}
